Experimental data taken from a melting point compilation (Tetko et al.; mined from patent text by program, amines drawn as free bases though some values may be those of a salt).

| melting point [°C] | SMILES |
| --- | --- |
| 155 to 159 | CCOC(=O)c1cc(=O)c2c(OCC(O)COc3cccc4occc(=O)c34)cccc2o1 (stereo unspecified) |
| 124 to 126 | CSCC[C@@H](NC(=O)OC(C)(C)C)C(=O)NCC(=O)O |
| 151 to 152 | Cc1nnnn1C(C=O)=C(c1ccc(F)cc1)c1ccc(F)cc1 |
| 70 to 71 | CN[C@@H]1COc2cc(Cl)ccc2O1 |
| 150 to 151 | Nc1ccc2c(c1)SN(CCCCN1CCN(c3ncccn3)CC1)C2 |
| 234 to 235 | c1csc(CNc2nc(-n3ccnc3)nc3ccccc23)c1 |
| 93.6 | CCOc1cc(C(F)(F)F)sc1C(=O)OC |
| 119 to 120 | CCCCC(=O)Nc1ccccc1C(N)=O |
| 70 to 71 | CCCCCN(CCc1c[nH]c2ccccc12)C(=O)CCCC(=O)OC |
| 244 to 250 | CCCOCCOc1ccc(COc2ccc3c(c2)C=C(C(=O)O)CCS3(=O)=O)cc1 |
| 161 to 163 | CCS(=O)(=O)C(NC(C)=O)C(=O)NCc1ccccc1 (stereo unspecified) |
| 156 to 158 | CNS(=O)(=O)CCc1ccc2[nH]cc(C3CCN(C)CC3)c2c1 |
| 157 to 159 | CCCOc1nc(N)c2ncn(C3C=CCCC3)c2n1 (stereo unspecified) |
| 57 | Cc1cc(CCCCCOc2ccc(C#N)cc2)on1 |
| 150 to 154 | CN(C)CCNC(=O)Nc1ccc(-c2cnc(COCc3cc4ccccc4o3)o2)cc1 |
| 208 to 209 | COc1ccc2nc(NC(=O)CO)sc2c1 |
| 301 to 303 | COc1cc(OC)c2c(=O)cc(-c3ccc(O)cc3)oc2c1 |
| 140 to 146 | O=S(=O)(NCC(O)(Cn1cncn1)c1ccc(F)cc1F)c1ccc(F)cc1 (stereo unspecified) |
| 147 to 149 | Cc1ccc(NCC2CCNCC2)c(C(=O)Nc2ccc(F)cn2)c1 |
| 80 to 84 | CC(=O)NCc1cc(C(C)(C)C)c(O)c(C(C)(C)C)c1 |
| 202 to 203 | O=C(O)CCn1c(=O)n(CCN2CCN(c3ccc(F)cc3)CC2)c(=O)c2cscc21 |
| 195 to 199 | c1cc2cc(-c3cnc(O[C@H]4CCN5CCC[C@@H]4C5)nc3)ccc2[nH]1 |
| 143 | COc1cc(-c2nc3ccc(OCCN4CCCC4)cc3n2Cc2ccccc2C(F)(F)F)cc(OC)c1OC |

| melting point [°C] | SMILES |
| --- | --- |
| 225 to 234 | COc1cccc2c1CC(C(=O)NCc1ccc(C(=O)O)cc1)N2S(=O)(=O)c1ccc(-c2ccc(F)cc2Cl)cc1 (stereo unspecified) |
| 167 to 169 | COC(=O)NCCNC(=O)c1cc(C)c(C(c2cc(F)ccc2F)S(=O)(=O)c2ccc(F)cc2)cn1 (stereo unspecified) |
| 154 to 155 | CCCc1nc(C(O)C(C)C)c(C#N)n1Cc1ccc(-c2ccccc2-c2nnnn2C(c2ccccc2)(c2ccccc2)c2ccccc2)cc1 (stereo unspecified) |
| 121 to 123 | CCOC(=O)c1cnc2c(c(C)nn2-c2ccccn2)c1Cl |
| 103 to 107 | CCCc1c(O)cccc1Oc1ccccc1C#N |
| 178 | CCOCCn1c(NC2CCN(C(=O)c3cc(C(F)(F)F)cc(C(F)(F)F)c3)C(Cc3ccccc3)C2)nc2ccccc21 (stereo unspecified) |
| 130 to 132 | CCOC(=O)c1nc(C2CC2)nc(N)c1C |
| 199 to 200 | COc1ccc2c(n1)C1(CO2)C(=O)Nc2ccccc21 (stereo unspecified) |
| 328 to 331 | Cc1cc(-c2c(F)cc3c(=O)c(C(=O)O)cn4c3c2SC[C@@H]4C)cc(C)n1 |
| 50.2 | C=CCCC(C#N)(C#N)Cc1ccc(OC(F)(F)Br)cc1 |
| 106 | OCc1ccc(OCc2ccccc2)c2c1OCCO2 |
| 196 | S=c1cc(-c2cnccn2)ss1 |
| 210 | COC(=O)[C@@H]1C[C@H](C(=O)O)Nc2cc(Cl)c(Cl)c(Cl)c21 (relative stereo) |
| 74 to 75 | COC(=O)C(C)Oc1ncn(-c2ccc(Cl)cc2Cl)n1 (stereo unspecified) |
| 79 to 89 | CN1CC(CCCN2CCN(c3ncccn3)CC2)OC1=O (stereo unspecified) |
| 255 | CCN(CC)c1ccc(-c2cc(-c3ccc(C(=O)O)cc3)ccc2CCCNC2CCCC2)cc1C(C)(C)C |
| 246 to 247 | CCOCc1nc2c(N)nc(C)c(C)c2n1Cc1cc(-c2ccc(F)cc2)no1 |
| 178 | CC1CCc2nc(=O)c(-c3ccccc3)cn21 (stereo unspecified) |
| 138 to 140 | Cc1cc(Oc2ccc(Cl)nn2)c(C)cc1N |
| 290 to 292 | Cn1nc(-c2ccc3cc(O)ccc3c2)c2ccc(O)cc21 |
| 128 to 131 | CCCC(C(C)=CC(CNC(=O)c1cccnc1)=NO)[N+](=O)[O-] (stereo unspecified) |
| 91 to 92 | CCOCOC(CCC(C(=O)NC)C(C)C(O)c1ccccc1)c1ccc(F)cc1 (stereo unspecified) |
| 176 to 177 | Oc1ccc(-c2nn(C3CCCCC3)c3c(Cl)cccc23)cc1 |

| melting point [°C] | SMILES |
| --- | --- |
| 165 to 166 | OCc1c(CN2CCN(c3ccc(Cl)cc3Cl)CC2)nc2ccc(Cl)cn12 |
| 266 to 268 | CC(C)(C)c1ccc(-c2nnc(-c3ccc(C(=O)O)cc3N)o2)cc1 |
| 75 to 77 | O=CC=C(c1ccccc1F)c1ccccc1F |
| 197 to 198 | COc1ccc(C(=O)Nc2ccc3oc4c(c3c2)CCCC4)cc1 |
| 73 to 76 | CC=CC(=O)Oc1ccc(Nc2ccccc2)cc1 |
| 276 to 278 | CC(C)(C)C(=O)c1c[nH]c2ncc(-c3ccccn3)nc12 |
| 95 to 98 | Fc1cc(Cl)ccc1C1(Br)NNC2=C1CCCC2 (stereo unspecified) |
| 112 | CCCCCCCCCC(=O)OCc1cccn2c(=O)c(CCN3CCC(N4Cc5ccc(F)cc5O4)CC3)c(C)nc12 |
| 180 | Cc1ncc(COC(=O)c2ccncc2)cc1O |
| 168 to 170 | O=S(=O)(CCCCCOc1ccc(C2=C(c3ccc(O)cc3)CCCc3cc(O)ccc32)cc1)CCCC(F)(F)C(F)(F)F |
| 241 | O=C(Nc1cccc(S(=O)(=O)N2CCCC2)c1)c1cnn2c(C(F)(F)F)cc(-c3ccc(C(F)(F)F)cc3)nc12 |
| 178 to 179 | Cc1nc2c(OCc3c(Cl)cc(C(O)c4ccccc4)cc3Cl)cccn2c1Br (stereo unspecified) |
| 227 to 229 | COc1ccc(-c2cc3ncc(C#N)c(Nc4ccc(Sc5nccn5C)c(Cl)c4)c3cc2OC)cc1 |
| 78 to 79 | CCS(=O)(=O)c1ccc(I)cc1 |
| 130 | O=C1CCC(=O)N1CC(O)COc1ccccc1 (stereo unspecified) |
| 64 to 65 | CCCCCCCCCCCCCCCC(=O)OCc1cc2c(s1)-c1ccccc1OC2c1ccccc1 (stereo unspecified) |
| 143 | CC(C)CCn1c(=O)c(=NNc2ccccc2)c(=O)n(-c2ccccc2)c2ccccc21 |
| > 300 | CCCn1c(=O)n(Cc2ccccc2)c(=O)c2nc(-c3ccc(/C=C/C(=O)O)cc3)[nH]c21 |
| 278 to 280 | CC1(c2cc(-c3cccc(C=C4SC(N5CCCC5)=NC4=O)c3)ccc2O)CCCCC1 |
| 163 to 165 | CC(=O)NC[C@H]1CN(c2ccc(C3(F)CCNCC3)c(F)c2)C(=O)O1 |
| 226 to 227 | CNC(C)=Nc1ccc(-c2c[nH]cn2)cc1 |
| 70 to 72 | COC(=O)CCC(=O)c1ccc2c(c1)CC(CO)O2 (stereo unspecified) |
| 120 to 121 | O=C1CC(c2ccc(F)cc2)c2ccccc21 (stereo unspecified) |

| SMILES | melting point [°C] |
| --- | --- |
| Cc1ccc(OCC2CN=C(N)O2)c(C)c1 (stereo unspecified) | 116 |
| CN1Cc2c(-c3noc(CN4CC=CC4)n3)ncn2-c2ccccc2C1=O | 215 to 220 |
